This is an account of results in PMC8640678 (Journal of Pesticide Science, 2021).

The target in one experiment is T1, HcbB3 with HcbB2 (Nocardioides sp. PD653, UniProt A0A1V1W0L1).
T1 sequence (A0A1V1W0L1 1-506): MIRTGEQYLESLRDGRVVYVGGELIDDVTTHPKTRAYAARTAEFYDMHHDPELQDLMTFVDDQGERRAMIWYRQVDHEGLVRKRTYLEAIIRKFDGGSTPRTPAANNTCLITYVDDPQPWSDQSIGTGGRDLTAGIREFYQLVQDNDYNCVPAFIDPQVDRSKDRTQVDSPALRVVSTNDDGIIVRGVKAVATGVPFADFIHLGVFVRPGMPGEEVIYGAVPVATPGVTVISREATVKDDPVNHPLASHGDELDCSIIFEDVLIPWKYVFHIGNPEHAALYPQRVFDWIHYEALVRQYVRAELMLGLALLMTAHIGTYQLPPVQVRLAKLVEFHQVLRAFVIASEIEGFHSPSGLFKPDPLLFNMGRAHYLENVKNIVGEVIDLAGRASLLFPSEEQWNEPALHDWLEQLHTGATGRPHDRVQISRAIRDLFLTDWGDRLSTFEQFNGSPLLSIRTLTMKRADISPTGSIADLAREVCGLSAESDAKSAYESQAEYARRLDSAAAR
Kind of experiment: PCP dissipation by recombinant E. coli cells. To be noted: co-expressed HcbB2; whole cells. The format is cell-based.

Experiment [1] has as its system HcbA3C-His. Kind of experiment: NADH oxidation at […] nm, steady-state fit. The format is biochemical, Nocardioides sp. PD653. To be noted: 1–8 µM FMN, 10–120 µM NADH, 25 nM enzyme; ping-pong; cited from earlier work.
Experiment [2] deals with HcbA3C-His. Kind of experiment: spectrofluorometric titration. It is filed as binding, Nocardioides sp. PD653. To be noted: oxidized FMN; no NADH stated; cited from earlier work.

Consider `Oc1c(Cl)c(Cl)c(Cl)c(Cl)c1Cl` [PCP], for which the “PCP dissipation by recombinant E. coli cells” value on HcbB3 with HcbB2 was “co-expression of hcbB1 and hcbB3 or hcbB2 and hcbB3 led to significant PCP dissipation activity”.

A word on the Km: it is the substrate concentration at which the rate is half of its maximum. By Kd is commonly meant the concentration at which binding is half-saturated. `Cc1cc2nc3c(=O)[nH]c(=O)nc-3n(C[C@H](O)[C@H](O)[C@H](O)COP(=O)(O)O)c2cc1C` [FMN]: in the experiment with HcbA3C-His [1], the Km was 4.43 ± 0.69 µM. Further, the dissociation constant Kd on HcbA3C-His [2] was 750 ± 170 nM.

With `NC(=O)C1=CN([C@@H]2O[C@H](COP(=O)(O)OP(=O)(O)OC[C@H]3O[C@@H](n4cnc5c(N)ncnc54)[C@H](O)[C@@H]3O)[C@@H](O)[C@H]2O)C=CC1` [NADH], in the experiment with HcbA3C-His [1], the Km was 51.7 ± 11.6 µM.
